Assay [1] deals with ICAM-1s (circulating soluble ICAM-1). The experiment in a line: Circulating soluble ICAM-1 in serum (ELISA) in long-term clinical study of patients with stable angina pectoris. Type of assay: in vivo, human. To be noted: for concentration of ICAM-1s, Mean ± SD: 4 weeks double-blind. As for the experimental part:
This study comprised 3 consecutive phases: • a 7-day pre-study under placebo; • a 4-week double-blind and double-placebo randomized crossover study during which the patients received alternately (2×2 weeks) a molsidomine-based formulation containing an 8 mg dose, currently marketed in Belgium under the name Corvatard® (2 daily dosage units), and a molsidomine-based formulation containing a 16 mg dose, effective over 24 hours, currently marketed in Belgium under the name Coruno® (1 daily dosage unit); and • a 12-month study during which the 172 patients received a molsidomine-based formulation containing a 16 mg dose, currently marketed in Belgium under the name Coruno®. Also, and of greatest importance, the concentrations of ICAM-1s were measured after each of the three phases of the study, the first measurement constituting the baseline. More precisely, the concentrations of ICAM-1s were measured as follows: Blood samples (5 ml) were taken in non-heparinized tubes. These samples were kept at room temperature and then centrifuged. The serum was separated off and immediately frozen at −20° C. until required for analysis. The circulating ICAM-1 was measured using a commercially available ELISA test (R&D Systems Europe).
In general terms: An ELISA detects its analyte on a solid surface through an enzyme-linked reagent.

The nature of assay [2]: Weekly frequency of angina attacks and of consumption of s.l. ISDN 5 mg tablets in clinical study. Format: in vivo, human. As for the experimental part:
This study comprised 3 consecutive phases: • a 7-day pre-study under placebo; • a 4-week double-blind and double-placebo randomized crossover study during which the patients received alternately (2×2 weeks) a molsidomine-based formulation containing an 8 mg dose, currently marketed in Belgium under the name Corvatard® (2 daily dosage units), and a molsidomine-based formulation containing a 16 mg dose, effective over 24 hours, currently marketed in Belgium under the name Coruno® (1 daily dosage unit); and • a 12-month study during which the 172 patients received a molsidomine-based formulation containing a 16 mg dose, currently marketed in Belgium under the name Coruno®. It is pointed out that, during the second phase of the study, the concomitant use of other antianginal drugs was prohibited with the exception of sublingual (s.l.) isosorbide dinitrate (ISDN) 5 mg in tablet form, which could be consumed ad libitum to alleviate the symptoms of anginal pain. In the course of this study, the weekly frequency of angina attacks and the weekly frequency of consumption of s.l. ISDN 5 mg tablets were noted.

Where [3] appears, read: 4-week treatment, versus baseline.

Entries after “also recorded” stand apart in the source; their conditions may differ.

Turning to `CCOC(=O)[N-]c1cn(N2CCOCC2)n[o+]1` [molsidomine], in assay [1] (4-week treatment (16 mg o.a.d. or 8 mg b.i.d.)), the “effect on the levels of circulating ICAM-1s” value is listed as “no effect; also recorded: did not cause any effect”. Besides, the “concentration of ICAM-1s, Mean ± SD” value in assay [1] (alcohol <1 glass/day, N=161) turned out to be 276 ± 89 ng/mL; in assay [1] (alcohol ≧1 glass/day, N=11), 242 ± 38 ng/mL; in assay [1] (all patients, N=172) it was 274 ± 87 ng/mL; in assay [1] (both concomitant drugs, N=20), 247 ± 45 ng/mL; in assay [1] (concomitant beta-blockers, N=30) it was 281 ± 58 ng/mL; in assay [1] (concomitant statins, N=38), 277 ± 70 ng/mL. Further, the “concentration of ICAM-1s, Mean ± SD” value came to 277 ± 67 ng/mL in assay [1] (former smokers, N=59); 264 ± 58 ng/mL in assay [1] (men, N=117); 276 ± 112 ng/mL in assay [1] (no concomitant medication, N=78); 262 ± 74 ng/mL in assay [1] (non-smokers, N=81); 297 ± 138 ng/mL in assay [1] (smokers, N=32); 293 ± 128 ng/mL in assay [1] (women, N=55). Besides, the “consumption of sublingual nitro compounds” value in assay [2] (setting [3]) is on record as “decreased”. For the same molecule, the “number of angina attacks” value in assay [2] (setting [3]) is recorded as “decreased”. In assay [2] (after one year), the antianginal effects entry is “maintained or even improved”.

For the origin of these results see US7754715B2, “Sustained-release oral molsidomine composition for treating atherosclerosis” (Therabel Pharmaceuticals Limited, priority 2004, dated 2010).
